Target: T1, SIRT1 (Homo sapiens, UniProt Q96EB6)
T1 sequence (Q96EB6 1-747): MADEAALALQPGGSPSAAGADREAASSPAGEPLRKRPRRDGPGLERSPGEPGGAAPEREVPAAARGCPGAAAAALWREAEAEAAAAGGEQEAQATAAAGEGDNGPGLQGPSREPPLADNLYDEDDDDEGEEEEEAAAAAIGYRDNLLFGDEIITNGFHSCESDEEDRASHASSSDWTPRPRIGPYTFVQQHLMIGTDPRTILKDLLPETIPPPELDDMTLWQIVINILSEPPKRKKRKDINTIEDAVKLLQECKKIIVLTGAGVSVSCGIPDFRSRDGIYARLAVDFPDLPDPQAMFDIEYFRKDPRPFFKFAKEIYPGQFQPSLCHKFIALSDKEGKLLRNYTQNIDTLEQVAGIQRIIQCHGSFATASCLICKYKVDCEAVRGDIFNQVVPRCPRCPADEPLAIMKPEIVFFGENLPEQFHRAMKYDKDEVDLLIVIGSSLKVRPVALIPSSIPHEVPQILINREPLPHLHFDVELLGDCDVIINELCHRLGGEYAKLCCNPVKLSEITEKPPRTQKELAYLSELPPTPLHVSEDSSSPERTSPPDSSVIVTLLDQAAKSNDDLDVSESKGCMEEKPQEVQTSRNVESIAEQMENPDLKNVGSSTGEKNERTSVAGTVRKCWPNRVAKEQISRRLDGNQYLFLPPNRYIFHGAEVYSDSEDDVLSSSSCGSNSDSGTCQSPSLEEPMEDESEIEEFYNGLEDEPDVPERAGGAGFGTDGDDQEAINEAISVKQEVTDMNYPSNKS
Assay: Mass spectrometry based assay to identify modulators (activators) of SIRT1 activity
Format: biochemical
Conditions: 0.5 μM peptide substrate, 120 μM βNAD+, 10 nM SIRT1, 25 minutes at 25° C.; for EC1.5: SIRT1 activation
Text: A mass spectrometry based assay was used to identify modulators of SIRT1 activity. The mass spectrometry based assay utilizes a peptide having 20 amino acid residues as follows: Ac-EE-K(biotin)-GQSTSSHSK(Ac)NleSTEG-K(5TMR)-EE-NH2 (SEQ ID NO: 1) wherein K(Ac) is an acetylated lysine residue and Nle is a norleucine. The peptide is labeled with the fluorophore 5TMR (excitation 540 nm/emission 580 nm) at the C-terminus. The sequence of the peptide substrate is based on p53 with several modifications. In addition, the methionine residue naturally present in the sequence was replaced with the norleucine because the methionine may be susceptible to oxidation during synthesis and purification.
The mass spectrometry assay is conducted as follows: 0.5 μM peptide substrate and 120 μM βNAD^+ is incubated with 10 nM SIRT1 for 25 minutes at 25° C. in a reaction buffer (50 mM Tris-acetate pH 8, 137 mM NaCl, 2.7 mM KCl, 1 mM MgCl2, 5 mM DTT, 0.05% BSA). Test compounds may be added to the reaction as described above. […] After the 25 minute incubation with SIRT1, 10 μL of 10% formic acid is added to stop the reaction. Reactions are sealed and frozen for later mass spec analysis. Determination of the mass of the substrate peptide allows for precise determination of the degree of acetylation (i.e. starting material) as compared to deacetylated peptide (product).
A control for inhibition of sirtuin activity is conducted by adding 1 μL of 500 mM nicotinamide as a negative control at the start of the reaction (e.g., permits determination of maximum sirtuin inhibition). A control for activation of sirtuin activity is conducted using 10 nM of sirtuin protein, with 1 μL of DMSO in place of compound, to determine the amount of deacetylation of the substrate at a given timepoint within the linear range of the assay. This timepoint is the same as that used for test compounds and, within the linear range, the endpoint represents a change in velocity.
For the above assay, SIRT1 protein was expressed and purified as follows. […] The protein was expressed by induction with 1 mM IPTG as an N-terminal His-tag fusion protein at 18° C. overnight and harvested at 30,000×g. Cells were lysed with lysozyme in lysis buffer (50 mM Tris-HCl, 2 mM Tris[2-carboxyethyl]phosphine (TCEP), 10 μM ZnCl2, 200 mM NaCl) and further treated with sonication for 10 min for complete lysis. The protein was purified over a Ni-NTA column (Amersham) and fractions containing pure protein were pooled, concentrated and run over a sizing column (Sephadex S200 26/60 global). The peak containing soluble protein was collected and run on an Ion-exchange column (MonoQ). Gradient elution (200 mM-500 mM NaCl) yielded pure protein. This protein was concentrated and dialyzed against dialysis buffer (20 mM Tris-HCl, 2 mM TCEP) overnight. The protein was aliquoted and frozen at −80° C. until further use.
Sirtuin modulating compounds that activated SIRT1 were identified using the assay described above and are shown below in Table 1. The EC1.5 values for the activating compounds are represented by A (EC1.5≦1 uM), B (EC1.5>1 and ≦10 uM), or C (EC1.5>10 uM). The percent maximum fold activation is represented by A (Fold activation≧300%), B (Fold Activation≧150% and <300%), or C (Fold Activation<150%).

| Structure (SMILES) | FOLD ACT. (percent maximum fold activation) | EC1.5 |
| --- | --- | --- |
| COCCN1CCN(Cc2sc(-c3ccccc3)nc2C(=O)Nc2ccccc2-c2nc3cccnc3s2)CC1 [Compound 12, 5-((4-(2-methoxyethyl)piperazin-1-yl)methyl)-2-phenyl-N-(2-(thiazolo[5,4-b]pyridin-2-yl)phenyl)thiazole-4-carboxamide] | A (Fold activation≧300%) | A (EC1.5≦1 uM) |
| O=C(Nc1ccccc1-c1nc2cccnc2s1)c1nc(-c2ccccc2)sc1CCCN1CCOCC1 [Compound 13, 5-(3-morpholinopropyl)-2-phenyl-N-(2-(thiazolo[5,4-b]pyridin-2-yl)phenyl)thiazole-4-carboxamide] | B (Fold Activation≧150% and <300%) | A (EC1.5≦1 uM) |
| COCCN1CCN(Cc2cnc3sc(-c4ccccc4NC(=O)c4nc(-c5ccccc5)oc4C(F)(F)F)nc3c2)CC1 [Compound 14, N-(2-(6-((4-(2-methoxyethyl)piperazin-1-yl)methyl)thiazolo[5,4-b]pyridin-2-yl)phenyl)-2-phenyl-5-(trifluoromethyl)oxazole-4-carboxamide] | B (Fold Activation≧150% and <300%) | A (EC1.5≦1 uM) |
| COCCN1CCN(Cc2cnc3sc(-c4ccccc4NC(=O)c4nc(-c5ccccc5)oc4C)nc3c2)CC1 [Compound 15, N-(2-(6-((4-(2-methoxyethyl)piperazin-1-yl)methyl)thiazolo[5,4-b]pyridin-2-yl)phenyl)-5-methyl-2-phenyloxazole-4-carboxamide] | B (Fold Activation≧150% and <300%) | A (EC1.5≦1 uM) |
| Cc1oc(-c2ccccc2)nc1C(=O)Nc1ccccc1-c1nc2cc(CN3CCOCC3)cnc2s1 [Compound 16, 5-methyl-N-(2-(6-(morpholinomethyl)thiazolo[5,4-b]pyridin-2-yl)phenyl)-2-phenyloxazole-4-carboxamide] | B (Fold Activation≧150% and <300%) | A (EC1.5≦1 uM) |
| Cc1oc(-c2ccccc2)nc1C(=O)Nc1ccccc1-c1nc2cc(CN3CCCC3)cnc2s1 [Compound 17, 5-methyl-2-phenyl-N-(2-(6-(pyrrolidin-1-ylmethyl)thiazolo[5,4-b]pyridin-2-yl)phenyl)oxazole-4-carboxamide] | A (Fold activation≧300%) | B (EC1.5>1 and ≦10 uM) |
| O=C(Nc1ccccc1-c1nc2cccnc2s1)c1nc(-c2ccccc2)oc1CN1CCOCC1 [Compound 18, 5-(morpholinomethyl)-2-phenyl-N-(2-(thiazolo[5,4-b]pyridin-2-yl)phenyl)oxazole-4-carboxamide] | C (Fold Activation<150%) | C (EC1.5>10 uM) |
| COCCN1CCN(Cc2oc(-c3ccccc3)nc2C(=O)Nc2ccccc2-c2nc3cccnc3s2)CC1 [Compound 19, 5-((4-(2-methoxyethyl)piperazin-1-yl)methyl)-2-phenyl-N-(2-(thiazolo[5,4-b]pyridin-2-yl)phenyl)oxazole-4-carboxamide] | C (Fold Activation<150%) | C (EC1.5>10 uM) |
| O=C(Nc1ccccc1-c1nc2cccnc2s1)c1nc(-c2ccccc2)oc1CN1CCCC1 [Compound 20, 2-phenyl-5-(pyrrolidin-1-ylmethyl)-N-(2-(thiazolo[5,4-b]pyridin-2-yl)phenyl)oxazole-4-carboxamide] | B (Fold Activation≧150% and <300%) | B (EC1.5>1 and ≦10 uM) |
| CC(C)(C)OC(=O)N1CCN(Cc2oc(-c3ccccc3)nc2C(=O)Nc2ccccc2-c2nc3cccnc3s2)CC1 [Compound 21, tert-butyl 4-((2-phenyl-4-(2-(thiazolo[5,4-b]pyridin-2-yl)phenylcarbamoyl)oxazol-5-yl)methyl)piperazine-1-carboxylate] | C (Fold Activation<150%) | C (EC1.5>10 uM) |
| O=C(Nc1ccccc1-c1nc2cc(CN3CCCC3)cnc2s1)c1nc(-c2ccccc2)cs1 [Compound 22, 4-phenyl-N-(2-(6-(pyrrolidin-1-ylmethyl)thiazolo[5,4-b]pyridin-2-yl)phenyl)thiazole-2-carboxamide] | B (Fold Activation≧150% and <300%) | A (EC1.5≦1 uM) |
| COCCN1CCN(Cc2cnc3sc(-c4ccccc4NC(=O)c4nc(-c5ccccc5)cs4)nc3c2)CC1 [Compound 23, N-(2-(6-((4-(2-methoxyethyl)piperazin-1-yl)methyl)thiazolo[5,4-b]pyridin-2-yl)phenyl)-4-phenylthiazole-2-carboxamide] | A (Fold activation≧300%) | A (EC1.5≦1 uM) |
| O=C(Nc1ccccc1-c1nc2cc(CN3CCOCC3)cnc2s1)c1nc(-c2ccccc2)cs1 [Compound 24, N-(2-(6-(morpholinomethyl)thiazolo[5,4-b]pyridin-2-yl)phenyl)-4-phenylthiazole-2-carboxamide] | B (Fold Activation≧150% and <300%) | A (EC1.5≦1 uM) |

Source: US8492401B2, “Thiazolopyridine sirtuin modulating compounds” (Sirtris Pharmaceuticals, priority 2008, dated 2013)
